Test results published in US20140271456A1, “RADIOTRACER IMAGING USING SODIUM IODIDE SYMPORTER POLYPEPTIDES” (Mayo Foundation for Medical Education and Research, priority 2013, published 2014).

What was measured:
NIS = biological target: T1, NIS (Homo sapiens, UniProt Q92911); assay: iodide mediated quenching of YFP-H148Q/I152L fluorescence; format: cell-based; conditions: 5 mM KClO4; quenching mediated by 200 mM NaI; FIG. 3
T1 construct: expressed in transfected cells; host or cells: cells transduced with the lentiviral vector
T1 sequence (Q92911 1-643): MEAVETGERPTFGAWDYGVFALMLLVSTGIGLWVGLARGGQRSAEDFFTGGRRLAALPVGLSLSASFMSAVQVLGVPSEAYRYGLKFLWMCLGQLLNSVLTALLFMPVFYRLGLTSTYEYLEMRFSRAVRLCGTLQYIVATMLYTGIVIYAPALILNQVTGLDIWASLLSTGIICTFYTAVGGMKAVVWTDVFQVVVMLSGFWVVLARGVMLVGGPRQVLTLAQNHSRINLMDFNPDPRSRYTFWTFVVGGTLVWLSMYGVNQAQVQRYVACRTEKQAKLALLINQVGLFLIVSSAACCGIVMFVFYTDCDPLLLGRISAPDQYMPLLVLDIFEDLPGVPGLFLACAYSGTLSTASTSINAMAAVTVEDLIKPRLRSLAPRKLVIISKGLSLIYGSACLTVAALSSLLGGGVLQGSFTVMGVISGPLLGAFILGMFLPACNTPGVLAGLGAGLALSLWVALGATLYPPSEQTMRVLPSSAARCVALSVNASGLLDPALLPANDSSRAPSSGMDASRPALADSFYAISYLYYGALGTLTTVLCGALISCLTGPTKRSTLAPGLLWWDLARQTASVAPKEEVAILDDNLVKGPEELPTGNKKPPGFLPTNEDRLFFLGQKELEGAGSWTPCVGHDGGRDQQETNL
Experimental: 72 hours post infection, the cells are subjected to two color flow cytometry to determine the percentage of cells that express YFP-H148Q/I152L and are tagged with anti-HA antibody conjugated to Alexa Fluor 647. To determine the percentage hNIS variants that can transport iodide into the cell, infected cells are treated with 200 μM NaI. The quenching of YFP-H148Q/I152L fluorescence (output for intracellular iodide uptake) is analyzed by flow cytometry.
Five million cells are infected at a moi of 1 with the lentiviral library transducing HA-hNIS variants. On the third day post infection, the cells are expanded to increase the number of cells expressing each unique NIS variant to limit the potential of it being lost during the selection procedure. On day 5, infected cells that fluoresce brightly are selected for by fluorescence-activated cell sorting (FACS) and collected in HBSS/HEPES buffer Immediately thereafter, these cells are incubated for 5 minutes with KClO4 at a concentration that inhibits iodide transport by non-mutated NIS. Then, NaI is added to the cells to a finale concentration of […], and the cells are incubated for 10 minutes at 37° C. Cells whose fluorescence is quenched in the presence of KClO4 are selected for by flow sorting. […]

NIS expressing cells = conditions: less efficiently than iodide; cited from earlier work

In the case of [K+].[O-][Cl+3]([O-])([O-])[O-] [perchlorate, KClO4], the “effect on iodide mediated quenching of YFP-H148Q/I152L” value (NIS) is given as “inhibition” and the “efficiency of concentration in NIS expressing cells compared to iodide anions” value (NIS expressing cells) is given as 10 fold.
